≈ marks a conversion by molar mass, not a printed value. Calls of active or inactive are those of the source. The rule behind the calls is not given here.
How the values were obtained:
Staphylococcus aureus [1] = test: Antimicrobial activity against log-phase methicillin-resistant Staphylococcus aureus HUSA 304 assessed as resistant bacteria in tissue cage fluid selected on 1 to 5 ug/ml of compound measured on day 11 post treatment in presence of 50 mg/L calcium ions; assay type: functional, organism-based
Staphylococcus aureus [2] = test: Antimicrobial activity against log-phase methicillin-resistant Staphylococcus aureus HUSA 304 assessed as resistant bacteria on coverslip selected on 1 to 5 ug/ml of compound measured on day 11 post treatment in presence of 50 mg/L calcium ions; assay type: functional, organism-based
Staphylococcus aureus [3] = test: Antimicrobial activity against log-phase methicillin-resistant Staphylococcus aureus HUSA 304 by M7-A6 method in presence of 50 mg/L calcium ions; assay type: functional
Staphylococcus aureus [4] = test: Bactericidal activity against log-phase methicillin-resistant Staphylococcus aureus HUSA 304 after 24 hrs by time kill analysis; assay type: functional; settings: HUSA 304, 24 h
Staphylococcus aureus [5] = test: Bactericidal activity against stationary-phase methicillin-resistant Staphylococcus aureus HUSA 304 after 24 hrs by time kill analysis; assay type: functional; settings: HUSA 304, 24 h
[6] = Cmax in tissue cage fluid of Wistar rat infected with methicillin-resistant Staphylococcus aureus HUSA 304 at 45 mg/kg/day, ip; assay type: ADME, organism-based, Interstitial fluid; set-up: dose 45 mg/kg/day, route intraperitoneal
[7] = Cmax in tissue cage fluid of Wistar rat infected with methicillin-resistant Staphylococcus aureus HUSA 304 at 70 mg/kg/day, ip; assay type: ADME, organism-based, Interstitial fluid; set-up: dose 70 mg/kg/day, route intraperitoneal
[8] = Cmax in tissue cage fluid of Wistar rat infected with methicillin-resistant Staphylococcus aureus HUSA 304 at 100 mg/kg/day, ip; assay type: ADME, organism-based, Interstitial fluid; set-up: dose 100 mg/kg/day, route intraperitoneal
[9] = AUC (0 to infinity) in tissue cage fluid of Wistar rat infected with methicillin-resistant Staphylococcus aureus HUSA 304 at 45 mg/kg/day, ip; assay type: ADME, organism-based; set-up: dose 45 mg/kg/day, time infinity, route intraperitoneal
[10] = AUC (0 to infinity) in tissue cage fluid of Wistar rat infected with methicillin-resistant Staphylococcus aureus HUSA 304 at 70 mg/kg/day, ip; assay type: ADME, organism-based; set-up: dose 70 mg/kg/day, time infinity, route intraperitoneal
[11] = AUC (0 to infinity) in tissue cage fluid of Wistar rat infected with methicillin-resistant Staphylococcus aureus HUSA 304 at 100 mg/kg/day, ip; assay type: ADME, organism-based; set-up: dose 100 mg/kg/day, time infinity, route intraperitoneal
[12] = Ratio of Cmax in tissue cage fluid of Wistar rat infected with methicillin-resistant Staphylococcus aureus HUSA 304 at 45 mg/kg/day, ip to MIC for methicillin-resistant Staphylococcus aureus HUSA 304; assay type: functional; settings: route intraperitoneal
[13] = Ratio of Cmax in tissue cage fluid of Wistar rat infected with methicillin-resistant Staphylococcus aureus HUSA 304 at 70 mg/kg/day, ip to MIC for methicillin-resistant Staphylococcus aureus HUSA 304; assay type: functional; settings: route intraperitoneal
[14] = Ratio of Cmax in tissue cage fluid of Wistar rat infected with methicillin-resistant Staphylococcus aureus HUSA 304 at 100 mg/kg/day, ip to MIC for methicillin-resistant Staphylococcus aureus HUSA 304; assay type: functional; settings: route intraperitoneal
[15] = Ratio of AUC (0 to infinity) in tissue cage fluid of Wistar rat infected with methicillin-resistant Staphylococcus aureus HUSA 304 at 45 mg/kg/day, ip to MIC for methicillin-resistant Staphylococcus aureus HUSA 304; assay type: functional; settings: route intraperitoneal
[16] = Ratio of AUC (0 to infinity) in tissue cage fluid of Wistar rat infected with methicillin-resistant Staphylococcus aureus HUSA 304 at 70 mg/kg/day, ip to MIC for methicillin-resistant Staphylococcus aureus HUSA 304; assay type: functional; settings: route intraperitoneal
[17] = Ratio of AUC (0 to infinity) in tissue cage fluid of Wistar rat infected with methicillin-resistant Staphylococcus aureus HUSA 304 at 100 mg/kg/day, ip to MIC for methicillin-resistant Staphylococcus aureus HUSA 304; assay type: functional; settings: route intraperitoneal
[18] = fT>MIC in methicillin-resistant Staphylococcus aureus HU 304 infected in Wistar rat at 45 mg/kg/day, ip for 7 days; assay type: functional; settings: route intraperitoneal
[19] = fT>MIC in methicillin-resistant Staphylococcus aureus HU 304 infected in Wistar rat at 70 mg/kg/day, ip for 7 days; assay type: functional; settings: route intraperitoneal
[20] = fT>MIC in methicillin-resistant Staphylococcus aureus HU 304 infected in Wistar rat at 100 mg/kg/day, ip for 7 days; assay type: functional; settings: route intraperitoneal
[21] = Cmax in serum of Wistar rat infected with methicillin-resistant Staphylococcus aureus HUSA 304 at 45 mg/kg/day, ip for 7 days; assay type: ADME, organism-based; set-up: dose 45 mg/kg/day, route intraperitoneal
[22] = Cmax in serum of Wistar rat infected with methicillin-resistant Staphylococcus aureus HUSA 304 at 70 mg/kg/day, ip for 7 days; assay type: ADME, organism-based; set-up: dose 70 mg/kg/day, route intraperitoneal
[23] = Cmax in serum of Wistar rat infected with methicillin-resistant Staphylococcus aureus HUSA 304 at 100 mg/kg/day, ip for 7 days; assay type: ADME, organism-based; set-up: dose 100 mg/kg/day, route intraperitoneal
[24] = Cmax in serum of human infected with methicillin-resistant Staphylococcus aureus HUSA 304 at 6 mg/kg/day, […]; assay type: ADME, organism-based; set-up: dose 6 mg/kg/day
[25] = Cmax in serum of human infected with methicillin-resistant Staphylococcus aureus HUSA 304 at 8 mg/kg/day, […]; assay type: ADME, organism-based; set-up: dose 8 mg/kg/day, route intraperitoneal
[26] = Cmax in serum of human infected with methicillin-resistant Staphylococcus aureus HUSA 304 at 10 mg/kg/day, […]; assay type: ADME, organism-based; set-up: dose 10 mg/kg/day, route intraperitoneal
[27] = AUC (0 to infinity) in serum of Wistar rat infected with methicillin-resistant Staphylococcus aureus HUSA 304 at 45 mg/kg/day, ip for 7 days; assay type: ADME, organism-based; set-up: dose 45 mg/kg/day, time infinity, route intraperitoneal
[28] = AUC (0 to infinity) in serum of Wistar rat infected with methicillin-resistant Staphylococcus aureus HUSA 304 at 70 mg/kg/day, ip for 7 days; assay type: ADME, organism-based; set-up: dose 70 mg/kg/day, time infinity, route intraperitoneal
[29] = AUC (0 to infinity) in serum of Wistar rat infected with methicillin-resistant Staphylococcus aureus HUSA 304 at 100 mg/kg/day, ip for 7 days; assay type: ADME, organism-based; set-up: dose 100 mg/kg/day, time infinity, route intraperitoneal
[30] = AUC (0 to 24 hrs) in serum of human infected with methicillin-resistant Staphylococcus aureus HUSA 304 at 6 mg/kg/day, […]; assay type: ADME, organism-based; set-up: time < 24 hr, dose 6 mg/kg/day
[31] = AUC (0 to 24 hrs) in serum of human infected with methicillin-resistant Staphylococcus aureus HUSA 304 at 8 mg/kg/day, […]; assay type: ADME, organism-based; set-up: dose 8 mg/kg/day, time < 24 hr
[32] = AUC (0 to 24 hrs) in serum of human infected with methicillin-resistant Staphylococcus aureus HUSA 304 at 10 mg/kg/day, […]; assay type: ADME, organism-based; set-up: dose 10 mg/kg/day, time < 24 hr
Staphylococcus aureus [33] = test: Antimicrobial activity against methicillin-resistant Staphylococcus aureus HUSA 304 infected in Wistar rat assessed as decrease in bacterial load in tissue cage fluid at 100 mg/kg/day, ip administered for 7 days measured on day 8 post treatment in presence of 50 mg/L calcium ions; assay type: functional; settings: route intraperitoneal
Staphylococcus aureus [34] = test: Antimicrobial activity against methicillin-resistant Staphylococcus aureus HUSA 304 infected in Wistar rat assessed as decrease in bacterial load in tissue cage fluid at 100 mg/kg/day, ip administered for 7 days measured on day 11 post treatment in presence of 50 mg/L calcium ions; assay type: functional; settings: route intraperitoneal
Staphylococcus aureus [35] = test: Antimicrobial activity against log-phase methicillin-resistant Staphylococcus aureus HUSA 304 selected on 1 to 5 ug/ml of compound measured after 5 days by M7-A6 method in presence of 50 mg/L calcium ions; assay type: functional; settings: HUSA 304, 120 h
Staphylococcus aureus [36] = test: Antimicrobial activity against log-phase methicillin-resistant Staphylococcus aureus HUSA 304 assessed as resistant bacteria in tissue cage fluid selected on 1 to 5 ug/ml of compound measured on day 8 post treatment in presence of 50 mg/L calcium ions; assay type: functional, organism-based
Staphylococcus aureus [37] = test: Bactericidal activity against log-phase methicillin-resistant Staphylococcus aureus HUSA 304 after 24 hrs by time kill analysis in presence of 50 mg/L calcium ions; assay type: functional; settings: HUSA 304, 24 h
Staphylococcus aureus [38] = test: Bactericidal activity against stationary-phase methicillin-resistant Staphylococcus aureus HUSA 304 after 24 hrs by time kill analysis in presence of 50 mg/L calcium ions; assay type: functional; settings: HUSA 304, 24 h

Structure (SMILES): CCCCCCCCCC(=O)N[C@@H](Cc1c[nH]c2ccccc12)C(=O)N[C@H](CC(N)=O)C(=O)N[C@@H](CC(=O)O)C(=O)N[C@@H]1C(=O)NCC(=O)N[C@@H](CCCN)C(=O)N[C@@H](CC(=O)O)C(=O)N[C@H](C)C(=O)N[C@@H](CC(=O)O)C(=O)NCC(=O)N[C@H](CO)C(=O)N[C@@H]([C@H](C)CC(=O)O)C(=O)N[C@@H](CC(=O)c2ccccc2N)C(=O)O[C@@H]1C
- Activity (Staphylococcus aureus [1]): Active
- Activity (Staphylococcus aureus [2]): Active
- MIC (Staphylococcus aureus [3]): 1 µg/mL
- MBC (Staphylococcus aureus [4]): 4 µg/mL (≈ 2.47 µM)
- MBC (Staphylococcus aureus [5]): 24 µg/mL (≈ 14.8 µM)
- Cmax [6]: 26000 ng/mL
- Cmax [7]: 34000 ng/mL
- Cmax [8]: 40000 ng/mL
- AUC(0-inf) [9]: 795 µg·h/mL
- AUC(0-inf) [10]: 953 µg·h/mL
- AUC(0-inf) [11]: 1100 µg·h/mL
- Ratio [12]: 26
- Ratio [13]: 34
- Ratio [14]: 40
- RatioAUC/MIC [15]: 795
- RatioAUC/MIC [16]: 953
- RatioAUC/MIC [17]: 1100
- fT>MIC [18]: 100%
- fT>MIC [19]: 100%
- fT>MIC [20]: 100%
- Cmax [21]: 103 µg/mL
- Cmax [22]: 128 µg/mL
- Cmax [23]: 140 µg/mL
- Cmax [24]: 95 µg/mL
- Cmax [25]: 106 µg/mL
- Cmax [26]: 130 µg/mL
- AUC(0-inf) [27]: 830 µg·h/mL
- AUC(0-inf) [28]: 984 µg·h/mL
- AUC(0-inf) [29]: 1200 µg·h/mL
- AUC at 24 h [30]: 730 µg·h/mL
- AUC at 24 h [31]: 773 µg·h/mL
- AUC at 24 h [32]: 1010 µg·h/mL
- log10cfu (Staphylococcus aureus [33]): 2.26
- log10cfu (Staphylococcus aureus [34]): 2.57
- MIC (Staphylococcus aureus [35]): 1 µg/mL
- Activity (Staphylococcus aureus [36]): Active

Structure (SMILES): CN[C@H](CC(C)C)C(=O)N[C@H]1C(=O)N[C@@H](CC(N)=O)C(=O)N[C@H]2C(=O)N[C@H]3C(=O)N[C@H](C(=O)N[C@H](C(=O)O)c4cc(O)cc(O)c4-c4cc3ccc4O)[C@H](O)c3ccc(c(Cl)c3)Oc3cc2cc(c3O[C@@H]2O[C@H](CO)[C@@H](O)[C@H](O)[C@H]2O[C@H]2C[C@](C)(N)[C@H](O)[C@H](C)O2)Oc2ccc(cc2Cl)[C@H]1O [VANCOMYCIN]
- MBC (Staphylococcus aureus [37]): 4 µg/mL
- MBC (Staphylococcus aureus [38]): > 32 µg/mL
